Test results reported in PMC11640089, “JRM-28, a Novel HDAC2 Inhibitor, Upregulates Plasticity-Associated Proteins in Hippocampal Neurons and Enhances Morphological Plasticity via Activation of CREB: Implications for Alzheimer’s Disease” (Cells, 2024).
pIC50: −log10 of the molar value. Values joined by “and” are separate entries in the source; they are usually repeats but may differ in a detail not shown here. Identical values can stand only once.

Key:
iPSC-derived AD neurons = assay: NMDA/AMPA-driven calcium entry assay in iPSC-derived AD neurons; assay type: cell-based, human
Description: Mouse primary hippocampal neurons and AD neurons were loaded with Fluo4-fluorescence conjugated calcium dye (Invitrogen Molecular Probes, Cat #F10471) and incubated at 37 °C for 60 min, as described before. Briefly, fluorescence excitation and emission spectra were recorded in a Perkin–Elmer Victor X2 Fluorimetric Spectrometer (Versiti Blood Center, Wauwatosa, WI, USA) in the presence of 50 μM NMDA and AMPA solutions. The recording was performed with 100 repeats at 0.1 ms intervals. The oscillogram was generated with the help of Parkin Elmer 2030 software that was connected to the Victor X2 calcium recorder unit. The real-time calcium noise graph was generated as a kinetic chart plotted on a linear scale.

HDAC2 [1] = biological target: T1, HDAC2 (Homo sapiens, UniProt Q92769); assay: Endogenous HDAC2 activity assay (luminescence) in SHSY5Y cells; assay type: cell-based; parameters: endogenous in cells; host or cells: SHSY5Y; settings: not reduced by DTT; 30 min of treatment
Description: Next, JRM-28 in the presence of DTT was evaluated by cytotoxicity assays. A TUNEL assay was performed with SHSY5Y neuronal cells using increasing concentrations of JRM-28 in the presence of DTT. […] The results were further confirmed by quantitative analysis (Figure 4B). […] Next, we wanted to study the effect of lower concentrations of […] on the regulation of HDAC2 activity. […] To further confirm this finding, we performed a luminescence-based HDAC2 activity assay in SHSY5Y cells with increasing doses of JRM-28. JRM-28 was not reduced by DTT during the treatment, as the cellular reductase and oxidoreductase enzymes are expected to reduce JRM-28 in its “active 28a/b” components. […]
Figure 4 Exploring the cytotoxicity of JRM-28. SHSY5Y neurons were treated with different doses of JRM-28 for 24 h and then analyzed for different cytotoxicity assays. […] TUNEL^+ve cells were detected as condensed brown bodies, whereas nuclei were stained with hematoxylin (blue). (B) TUNEL bodies were counted per 10 randomly selected cells in 20 different images. Results were plotted as a dotted boxplot, and the significance of the mean was analyzed by one-way ANOVA (single effector = treatment). **** p < 0.00001 versus DMSO control. […] (E) The band density of individual HDAC2 bands was assessed in ImageJ software (version 1.45) followed by normalization with respective β-actin band density. […]

HDAC2 [2] = biological target: T1, HDAC2; assay: Fluorimetric HDAC inhibition assay, HDAC2; assay type: biochemical; parameters: purchased BPS Bioscience 50034 (HDAC Fluorogenic Assay Kit; enzyme supplied with kit); settings: reduced with DTT
Description: The inhibition of HDAC1, 2, 3, and 6 by JRM-28 was fluorometrically measured using the HDAC Fluorogenic Assay Kit (Catalog# 50034) by BPS bioscience. Purified recombinant human HDAC1 (Cat# 50051), HDAC3 (Cat# 50003), and HDAC6 (Cat# 50056) were also obtained from BPS Bioscience. The enzyme inhibition assay was performed according to the manufacturer’s protocol. […] Purified recombinant HDAC2 (supplied with the fluorogenic kit) was diluted to 6 ng/µL (5 µL/well with the supplied HDAC assay buffer). HDAC 1, 3, and 6 were also diluted to the optimized concentration (5 µL/well) with the HDAC assay buffer. The activity of JRM-28 was measured along with DTT control and DMSO as blank. After adding 5 µL of the diluted HDAC enzymes in designated wells, the 96-well plate (supplied with the kit) was incubated at 37 °C. Then, the reaction was initiated by adding 5 µL of diluted HDAC substrate to each well, followed by another incubation at 37 °C for 30 min. Next, 50 µL of the developer reagent was added to each well and incubated at room temperature for another 15 min. Finally, fluorescence was measured by a microplate absorbance spectrophotometer (PerkinElmer Enspire 2300 Multilabel Multimode Microplate Reader) with an excitation at λ = 485 nm and detection at λ = 528 nm.

T1 sequence (Q92769 whole entry): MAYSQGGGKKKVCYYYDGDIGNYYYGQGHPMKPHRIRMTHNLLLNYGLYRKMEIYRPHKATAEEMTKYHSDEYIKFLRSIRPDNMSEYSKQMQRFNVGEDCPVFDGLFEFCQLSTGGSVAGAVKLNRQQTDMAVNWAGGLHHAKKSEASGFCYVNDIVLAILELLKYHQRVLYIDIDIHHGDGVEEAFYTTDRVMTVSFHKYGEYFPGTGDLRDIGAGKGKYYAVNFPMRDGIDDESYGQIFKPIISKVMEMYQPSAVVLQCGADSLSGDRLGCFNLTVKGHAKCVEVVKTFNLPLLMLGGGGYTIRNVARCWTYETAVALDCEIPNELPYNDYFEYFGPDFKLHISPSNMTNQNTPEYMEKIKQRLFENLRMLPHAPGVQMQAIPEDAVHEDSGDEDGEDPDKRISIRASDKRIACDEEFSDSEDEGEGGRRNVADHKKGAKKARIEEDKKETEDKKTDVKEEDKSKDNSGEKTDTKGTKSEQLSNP

- pIC50 (HDAC2 [1]): 5.26
- pIC50 (HDAC2 [2]): ~6.97 and 6.97
- Hill slope HDAC2 (fluorimetric) (HDAC2 [2]; listed as JRM-28 (JRM-28a+28b)): −1.580
Compound: CN(C(=O)CC(O)/C=C/CCSS(=O)(=O)CC/C=C/C(O)CC(=O)N(C)c1ccccc1)c1ccccc1 (stereo not drawn) [JRM-28, S-((E)-5-hydroxy-7-(methyl(phenyl)amino)-7-oxohept-3-en-1-yl) (E)-5-hydroxy-7-(methyl(phenyl)amino)-7-oxohept-3-ene-1-sulfonothioate]
- AMPA-driven calcium influx (iPSC-derived AD neurons; 5 µM): strong AMPA-driven calcium influx
- NMDA-driven calcium entry (iPSC-derived AD neurons; 5 µM): significantly high
- concentration of maximum NMDA-driven calcium entry (iPSC-derived AD neurons; 2, 5, and 10 µM tested): 10 µM
- NMDA- and AMPA-induced calcium entry after creb siRNA (iPSC-derived AD neurons; creb siRNA-transfected AD neurons): strongly attenuated
